# Like-named read-outs stand apart in the source and are kept apart here.
# Columns and labels:
# [1] = target: mACh, muscarinic acetylcholine receptor; conditions: human; cited from earlier work
# [2] = target: sigma, σ receptor; conditions: human; cited from earlier work
# [3] = target: D1 dopamine receptor (Homo sapiens, UniProt P21728); conditions: cited from earlier work
# [4] = target: 5-HT7 receptor (Rattus norvegicus, UniProt P32305); conditions: cited from earlier work
# [5] = target: T1, D2-L (long form of D2 receptor) (Homo sapiens, UniProt P14416); conditions: cited from earlier work
# T1 sequence (P14416 whole entry): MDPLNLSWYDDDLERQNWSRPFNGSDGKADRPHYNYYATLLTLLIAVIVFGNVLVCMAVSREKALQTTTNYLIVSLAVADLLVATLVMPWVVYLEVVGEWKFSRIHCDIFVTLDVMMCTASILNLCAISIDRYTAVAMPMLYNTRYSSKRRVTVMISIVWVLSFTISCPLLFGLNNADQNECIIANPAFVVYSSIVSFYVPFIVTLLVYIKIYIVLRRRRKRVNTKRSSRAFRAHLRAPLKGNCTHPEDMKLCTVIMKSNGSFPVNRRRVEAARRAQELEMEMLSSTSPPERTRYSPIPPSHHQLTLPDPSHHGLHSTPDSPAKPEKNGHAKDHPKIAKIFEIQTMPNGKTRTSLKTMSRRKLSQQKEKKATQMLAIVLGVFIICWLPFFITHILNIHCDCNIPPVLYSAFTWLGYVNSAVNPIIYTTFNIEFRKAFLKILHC
# [6] = target: α1-adrenoceptor; conditions: human; cited from earlier work
# [7] = target: 5-HT3 receptor (Homo sapiens, UniProt P46098); conditions: cited from earlier work
# Chain of 5-HT3 receptor (P46098 24-478): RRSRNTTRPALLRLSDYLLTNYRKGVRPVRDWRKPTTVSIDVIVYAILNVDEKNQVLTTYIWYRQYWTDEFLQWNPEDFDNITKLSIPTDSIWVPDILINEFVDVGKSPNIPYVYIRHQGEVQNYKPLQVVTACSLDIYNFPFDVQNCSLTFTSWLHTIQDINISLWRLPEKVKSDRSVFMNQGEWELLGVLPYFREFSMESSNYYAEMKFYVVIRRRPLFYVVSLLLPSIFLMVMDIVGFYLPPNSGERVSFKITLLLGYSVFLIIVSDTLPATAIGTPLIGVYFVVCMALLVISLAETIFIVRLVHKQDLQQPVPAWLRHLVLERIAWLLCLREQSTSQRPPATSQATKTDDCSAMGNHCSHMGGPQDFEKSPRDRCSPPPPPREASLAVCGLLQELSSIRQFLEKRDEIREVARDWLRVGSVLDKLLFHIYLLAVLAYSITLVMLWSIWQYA
# [8] = tested on: H1/D2; test: H1/D2 receptor affinity ratio; format: binding, human; conditions: Table 2; affinity ratio from data of Table 1
# [9] = target: D2-S (short form of D2 receptor) (Homo sapiens, UniProt P14416); conditions: cited from earlier work
# Chain of D2-S (short form of D2 receptor) (P14416 1-414 isoform P14416-2): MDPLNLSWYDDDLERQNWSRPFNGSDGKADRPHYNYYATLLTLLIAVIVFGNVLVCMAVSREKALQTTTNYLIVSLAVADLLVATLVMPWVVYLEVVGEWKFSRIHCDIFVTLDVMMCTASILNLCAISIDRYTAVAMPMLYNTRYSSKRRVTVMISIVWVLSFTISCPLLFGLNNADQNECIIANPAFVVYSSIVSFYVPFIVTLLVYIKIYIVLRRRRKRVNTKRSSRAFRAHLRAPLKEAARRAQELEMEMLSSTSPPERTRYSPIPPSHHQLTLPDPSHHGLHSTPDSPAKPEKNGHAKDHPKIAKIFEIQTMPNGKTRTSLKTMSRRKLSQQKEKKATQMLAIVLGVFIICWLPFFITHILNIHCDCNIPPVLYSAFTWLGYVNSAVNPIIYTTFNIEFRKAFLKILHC
# [10] = target: 5-HT6 receptor (Rattus norvegicus, UniProt P31388); conditions: cited from earlier work
# Chain of 5-HT6 receptor (Rattus norvegicus, UniProt P31388) (P31388 whole entry): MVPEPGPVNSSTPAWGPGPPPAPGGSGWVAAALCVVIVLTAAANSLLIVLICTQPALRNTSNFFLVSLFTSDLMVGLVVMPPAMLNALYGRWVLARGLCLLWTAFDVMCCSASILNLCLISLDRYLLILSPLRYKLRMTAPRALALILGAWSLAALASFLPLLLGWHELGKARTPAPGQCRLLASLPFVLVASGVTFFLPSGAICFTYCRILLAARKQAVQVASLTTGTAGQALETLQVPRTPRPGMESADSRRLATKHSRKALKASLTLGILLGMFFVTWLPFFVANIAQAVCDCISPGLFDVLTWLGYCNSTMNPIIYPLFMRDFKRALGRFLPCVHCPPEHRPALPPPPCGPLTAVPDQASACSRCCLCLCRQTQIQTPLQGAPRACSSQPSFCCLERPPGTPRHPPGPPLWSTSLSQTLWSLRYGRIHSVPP
# [11] = tested on: 5-HT2A/D2; test: 5-HT2A/D2 receptor affinity ratio; format: binding, human; conditions: Table 2; affinity ratio from data of Table 1
# [12] = tested on: 5-HT2C/5-HT2A; test: 5-HT2C/5-HT2A receptor affinity ratio; format: binding, human; conditions: Table 2; affinity ratio from data of Table 1
# [13] = tested on: 5-HT2C receptor relative to 5-HT2A and D2 receptors; test: Relative 5-HT2C affinity (formula I, sum of 5-HT2C/5-HT2A and 5-HT2C/D2 affinity ratios)
# [14] = target: T2, H1 histamine receptor (Homo sapiens, UniProt P35367); conditions: cited from earlier work
# T2 sequence (P35367 whole entry): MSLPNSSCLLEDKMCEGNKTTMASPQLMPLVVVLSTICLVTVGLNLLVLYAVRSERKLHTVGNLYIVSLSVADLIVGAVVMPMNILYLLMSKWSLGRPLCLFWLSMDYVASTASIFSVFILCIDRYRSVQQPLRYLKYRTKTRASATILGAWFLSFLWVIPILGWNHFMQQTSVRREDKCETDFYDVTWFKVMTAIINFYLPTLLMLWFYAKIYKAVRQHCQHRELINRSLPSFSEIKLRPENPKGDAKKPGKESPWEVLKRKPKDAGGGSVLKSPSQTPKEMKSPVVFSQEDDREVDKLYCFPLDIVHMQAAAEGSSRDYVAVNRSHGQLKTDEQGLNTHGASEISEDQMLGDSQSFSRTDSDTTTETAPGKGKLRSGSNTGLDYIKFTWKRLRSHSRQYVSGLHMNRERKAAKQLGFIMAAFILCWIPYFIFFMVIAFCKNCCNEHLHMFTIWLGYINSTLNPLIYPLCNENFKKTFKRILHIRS
# [15] = target: T3, D3 dopamine receptor (Homo sapiens, UniProt P35462); conditions: cited from earlier work
# T3 sequence (P35462 whole entry): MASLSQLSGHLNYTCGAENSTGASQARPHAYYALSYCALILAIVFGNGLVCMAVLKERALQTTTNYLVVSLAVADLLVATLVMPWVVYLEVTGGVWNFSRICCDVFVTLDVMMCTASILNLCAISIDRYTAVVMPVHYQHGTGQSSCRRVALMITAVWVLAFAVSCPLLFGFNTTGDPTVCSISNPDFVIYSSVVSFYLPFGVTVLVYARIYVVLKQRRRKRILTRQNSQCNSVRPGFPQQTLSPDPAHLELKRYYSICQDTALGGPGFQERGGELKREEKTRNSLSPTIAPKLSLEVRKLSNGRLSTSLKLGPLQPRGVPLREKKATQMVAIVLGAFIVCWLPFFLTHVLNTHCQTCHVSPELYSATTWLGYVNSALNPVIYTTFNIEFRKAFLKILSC
# [16] = target: 5-HT1A receptor (Homo sapiens, UniProt P08908); conditions: cited from earlier work
# Chain of 5-HT1A receptor (Homo sapiens, UniProt P08908) (P08908 whole entry): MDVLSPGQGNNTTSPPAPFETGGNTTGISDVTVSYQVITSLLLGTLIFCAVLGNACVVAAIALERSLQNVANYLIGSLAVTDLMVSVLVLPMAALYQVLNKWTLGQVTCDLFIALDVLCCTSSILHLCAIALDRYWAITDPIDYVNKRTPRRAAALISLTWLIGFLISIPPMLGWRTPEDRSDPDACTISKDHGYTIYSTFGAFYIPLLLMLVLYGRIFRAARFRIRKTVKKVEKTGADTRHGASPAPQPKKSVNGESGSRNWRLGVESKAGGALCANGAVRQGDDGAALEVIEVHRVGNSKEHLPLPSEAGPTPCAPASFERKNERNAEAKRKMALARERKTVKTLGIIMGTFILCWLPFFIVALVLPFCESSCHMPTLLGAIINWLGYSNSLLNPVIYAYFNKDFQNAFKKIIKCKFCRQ
# [17] = tested on: 5-HT2C/D2; test: 5-HT2C/D2 receptor affinity ratio; format: binding, human; conditions: Table 2; affinity ratio from data of Table 1
# [18] = target: α2-adrenoceptor; conditions: human; cited from earlier work
# [19] = target: mACh, muscarinic acetylcholine receptor; conditions: rat; cited from earlier work
# [20] = target: T4, 5-HT1A receptor (Rattus norvegicus, UniProt P19327); conditions: cited from earlier work
# T4 sequence (P19327 1-422): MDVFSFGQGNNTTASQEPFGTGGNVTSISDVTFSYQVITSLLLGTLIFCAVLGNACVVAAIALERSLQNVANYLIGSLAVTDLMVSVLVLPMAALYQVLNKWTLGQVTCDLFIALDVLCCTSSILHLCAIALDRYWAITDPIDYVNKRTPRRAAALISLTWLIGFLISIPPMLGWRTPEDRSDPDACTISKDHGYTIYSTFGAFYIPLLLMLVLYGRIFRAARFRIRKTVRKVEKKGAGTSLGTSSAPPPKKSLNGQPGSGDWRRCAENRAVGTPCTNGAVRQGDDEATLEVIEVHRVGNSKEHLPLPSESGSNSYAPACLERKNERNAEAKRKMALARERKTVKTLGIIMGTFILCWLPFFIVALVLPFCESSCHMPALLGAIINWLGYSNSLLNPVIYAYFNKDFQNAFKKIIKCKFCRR
# [21] = target: α1-adrenoceptor; conditions: rat; cited from earlier work
# [22] = target: T5, 5-HT2C receptor (Homo sapiens, UniProt P28335); conditions: cited from earlier work
# T5 sequence (P28335 33-458): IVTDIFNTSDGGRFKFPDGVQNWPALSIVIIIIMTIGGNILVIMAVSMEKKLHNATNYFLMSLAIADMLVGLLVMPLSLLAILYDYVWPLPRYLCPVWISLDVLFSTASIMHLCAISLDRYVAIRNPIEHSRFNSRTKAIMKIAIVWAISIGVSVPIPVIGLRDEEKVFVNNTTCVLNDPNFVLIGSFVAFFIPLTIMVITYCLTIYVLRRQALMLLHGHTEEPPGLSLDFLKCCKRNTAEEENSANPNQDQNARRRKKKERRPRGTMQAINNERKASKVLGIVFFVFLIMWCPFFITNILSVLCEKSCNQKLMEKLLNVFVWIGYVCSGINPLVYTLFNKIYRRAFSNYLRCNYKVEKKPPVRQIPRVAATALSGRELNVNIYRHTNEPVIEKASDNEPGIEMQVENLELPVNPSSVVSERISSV
# [23] = target: α2-adrenoceptor; conditions: rat; cited from earlier work
# [24] = target: sigma, σ receptor; conditions: rat; cited from earlier work
# [25] = target: 5-HT7 receptor (UniProt P34969); conditions: ref 11 (human and for ritanserin data also rat); cited from earlier work
# [26] = target: D1 dopamine receptor; conditions: ref 11 (human and for ritanserin data also rat); cited from earlier work
# [27] = target: sigma, σ receptor; conditions: ref 11 (human and for ritanserin data also rat); cited from earlier work
# [28] = target: α2-adrenoceptor; conditions: ref 11 (human and for ritanserin data also rat); cited from earlier work
# [29] = target: α1-adrenoceptor; conditions: ref 11 (human and for ritanserin data also rat); cited from earlier work
# [30] = target: T3, D3 dopamine receptor; conditions: ref 11 (human and for ritanserin data also rat); cited from earlier work
# [31] = target: T5, 5-HT2C receptor; conditions: Table 3; expressed as pKi or pKd values; known affinities; cited from earlier work
# [32] = target: 5-HT2C receptor (UniProt P28335); conditions: ref 11 (human and for ritanserin data also rat); cited from earlier work
# [33] = target: D2 receptor (Homo sapiens, UniProt P14416); conditions: Table 3; expressed as pKi or pKd values; known affinities; cited from earlier work
# Chain of D2 receptor (P14416 whole entry): as the sequence (P14416 whole entry) above
# [34] = target: mACh, muscarinic acetylcholine receptor; conditions: ref 11 (human and for ritanserin data also rat); cited from earlier work
# [35] = target: T2, H1 histamine receptor; conditions: ref 11 (human and for ritanserin data also rat); cited from earlier work
# [36] = target: T1, D2-L (long form of D2 receptor); conditions: ref 11 (human and for ritanserin data also rat); cited from earlier work
# [37] = target: 5-HT6 receptor (Homo sapiens, UniProt P50406); conditions: cited from earlier work
# Chain of 5-HT6 receptor (Homo sapiens, UniProt P50406) (P50406 whole entry): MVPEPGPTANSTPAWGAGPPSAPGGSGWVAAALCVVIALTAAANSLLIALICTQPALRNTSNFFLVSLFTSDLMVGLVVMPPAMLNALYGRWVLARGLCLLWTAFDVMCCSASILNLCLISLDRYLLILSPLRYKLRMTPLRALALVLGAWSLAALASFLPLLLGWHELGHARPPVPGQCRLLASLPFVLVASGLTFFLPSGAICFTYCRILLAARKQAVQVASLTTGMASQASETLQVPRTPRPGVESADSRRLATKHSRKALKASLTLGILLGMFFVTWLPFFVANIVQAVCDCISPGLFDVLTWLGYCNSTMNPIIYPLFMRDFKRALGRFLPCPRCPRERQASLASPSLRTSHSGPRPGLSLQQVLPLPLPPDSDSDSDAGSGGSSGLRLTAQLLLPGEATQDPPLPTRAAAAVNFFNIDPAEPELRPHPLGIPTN
# [38] = parameters: key: 1-high; 2-medium; 3-low probability; conditions: Table 4A; grading of probability from literature reports; cited from earlier work
# [39] = Table 4A; grading of probability from literature reports; cited from earlier work
# [40] = target: sigma, σ receptor; conditions: guinea-pig; cited from earlier work
# [41] = parameters: key: 1-high; 2-medium; 3-low probability; conditions: Table 4A; grading of probability from literature reports; cited from earlier work; remark: listed apart in the source
# [42] = parameters: key: 1-high; 2-medium; 3-low probability; conditions: Table 4A; grading of probability from literature reports; cited from earlier work; remark: listed apart in the source
# [43] = Table 2, sum of affinity ratios from data of Table 1
# Chain of D1 dopamine receptor (Homo sapiens, UniProt P21728) (P21728 whole entry): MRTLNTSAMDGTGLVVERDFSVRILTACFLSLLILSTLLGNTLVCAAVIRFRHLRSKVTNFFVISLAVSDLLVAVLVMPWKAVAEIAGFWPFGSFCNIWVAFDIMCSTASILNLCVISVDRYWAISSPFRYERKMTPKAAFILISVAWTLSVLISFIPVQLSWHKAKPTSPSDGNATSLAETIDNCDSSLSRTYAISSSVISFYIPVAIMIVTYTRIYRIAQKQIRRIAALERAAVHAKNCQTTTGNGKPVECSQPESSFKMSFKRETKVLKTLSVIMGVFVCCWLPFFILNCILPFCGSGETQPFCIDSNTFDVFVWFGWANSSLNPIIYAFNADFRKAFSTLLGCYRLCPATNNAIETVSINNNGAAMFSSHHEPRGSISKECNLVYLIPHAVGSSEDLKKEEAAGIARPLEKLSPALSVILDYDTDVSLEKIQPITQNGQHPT
# Chain of 5-HT7 receptor (Rattus norvegicus, UniProt P32305) (P32305 whole entry): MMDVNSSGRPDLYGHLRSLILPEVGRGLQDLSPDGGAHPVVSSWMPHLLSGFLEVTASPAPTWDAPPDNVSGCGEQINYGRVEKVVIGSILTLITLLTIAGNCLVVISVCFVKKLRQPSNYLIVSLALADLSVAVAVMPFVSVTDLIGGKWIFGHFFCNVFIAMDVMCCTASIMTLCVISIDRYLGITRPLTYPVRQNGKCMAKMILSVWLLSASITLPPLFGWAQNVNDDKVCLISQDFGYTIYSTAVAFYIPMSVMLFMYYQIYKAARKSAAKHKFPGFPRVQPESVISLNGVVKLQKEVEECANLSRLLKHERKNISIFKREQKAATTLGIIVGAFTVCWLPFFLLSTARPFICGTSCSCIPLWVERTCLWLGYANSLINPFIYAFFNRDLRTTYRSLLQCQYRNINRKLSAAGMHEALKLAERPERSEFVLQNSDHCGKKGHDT
compound,measurement,setting,value
CCNC(=O)N1CCN(CCCC(c2ccc(F)cc2)c2ccc(F)cc2)CC1 [Amperozide],mACh affinity value (−logKi),[1],6.3^19
same,sigma affinity value (−logKi),[2],6.3^19
same,D1 affinity value (−logKi),[3],5.1^19
same,5-HT7 affinity value (−logKi),[4],6.3^2
same,D2-L affinity value (−logKi),[5],6.4^3
same,α1 affinity value (−logKi),[6],6.2^19
same,5-HT3 affinity value (−logKi),[7],<5^19
same,H1/D2,[8],1.08
same,D2-S affinity value (−logKi),[9],6.5^3
same,5-HT6 affinity value (−logKi),[10],7.2^2
same,5-HT2A/D2,[11],1.23
same,5-HT2C/5-HT2A (2C/2A),[12],0.76
same,(2C/2A) + (2C/D2),[13]; [43],1.67
same,H1 affinity value (−logKi),[14],6.9^19
same,D3 affinity value (−logKi),[15],6.6^3
same,5-HT1A affinity value (−logKi),[16],5.9^19
same,5-HT2C/D2 (2C/D2),[17],0.92
same,α2 affinity value (−logKi),[18],5.5^19
COc1cc(C(C)=O)ccc1OCCCN1CCC(c2noc3cc(F)ccc23)CC1 [Iloperidone],D1 affinity value (−logKi),[3],6.7^10
same,5-HT7 affinity value (−logKi),[4],7.7^10
same,mACh affinity value (−logKi),[19],<5^17
same,5-HT1A affinity value (−logKi),[20],6.8^18
same,α1 affinity value (−logKi),[21],9.6^17
same,5-HT6 affinity value (−logKi),[10],7.4^10
same,5-HT2C affinity value (−logKi),[22],7.4^10
same,α2 affinity value (−logKi),[23],7.5^17
same,(2C/2A) + (2C/D2),[13]; [43],1.79
same,sigma affinity value (−logKi),[24],7.5^17
same,D3 affinity value (−logKi),[15],8.1^10
Cc1nc2sccn2c(=O)c1CCN1CCC(=C(c2ccc(F)cc2)c2ccc(F)cc2)CC1 [Ritanserin],5-HT7 affinity value (−logKi),[25],7.8^11
same,D1 affinity value (−logKi),[26],5.9^11
same,sigma affinity value (−logKi),[27],6.1^11
same,α2 affinity value (−logKi),[28],7.3^11
same,α1 affinity value (−logKi),[29],7.5^11
same,(2C/2A) + (2C/D2),[13]; [43],2.15
same,D3 affinity value (−logKi),[30],7.1^11
same,5-HT2C Affinity,[31],9
same,5-HT2C affinity value (−logKi),[32],9.0^11
same,D2 Affinity,[33],7.4
same,mACh affinity value (−logKi),[34],5.4^11
same,H1 affinity value (−logKi),[35],8.2^11
same,D2-L affinity value (−logKi),[36],7.4^11
O=C1NCCN1CCN1CCC(c2cn(-c3ccc(F)cc3)c3ccc(Cl)cc23)CC1 [Sertindole],5-HT6 affinity value (−logKi),[37],9.13^19
same,mACh affinity value (−logKi),[1],<5.6^19
same,D1 affinity value (−logKi),[3],6.89^19
same,α1 affinity value (−logKi),[6],8.7^19
same,5-HT1A affinity value (−logKi),[20],6.6^6
same,Improvement negative symptoms,[38],2
same,(2C/2A) + (2C/D2),[13]; Table 4B,1.91
same,Weight Gain,[39],2-3
same,sigma affinity value (−logKi),[40],6.9^6
same,Increases prolactin levels,[41],3
same,α2 affinity value (−logKi),[18],6.5^19
same,Extra-pyramidal side effects,[42],3

# Source: patent US20060229299A1, “5ht2c Receptor antagonists in the treatment of schizophrenia” (priority 2003, published 2006)
